Reference: the NIST ThermoML archive (doi:10.1016/j.jct.2019.01.025)

Assay: xn = mol fraction of the nth substance listed
Settings: 100 kPa, Liquid, Vibrating tube method

NCCO [2-aminoethan-1-ol] + CC(C)(C)O
mass density [kg/m3]
Settings | x1 = 0.1188 | x1 = 0.2328 | x1 = 0.3421 | x1 = 0.4472 | x1 = 0.5482 | x1 = 0.6454 | x1 = 0.739 | x1 = 0.8291 | x1 = 0.9161 | x1 = 1
298.15 K | 801.37 | 821.17 | 842.86 | 865.97 | 887.94 | 912.32 | 938.36 | 962.65 | 988.97 | 1012.53
303.15 K | 796.64 | 816.75 | 838.57 | 861.74 | 883.79 | 908.2 | 934.25 | 958.59 | 984.91 | 1008.47
308.15 K | 791.93 | 812.34 | 834.31 | 857.55 | 879.69 | 904.13 | 930.2 | 954.6 | 980.92 | 1004.49
313.15 K | 787.14 | 807.85 | 829.98 | 853.33 | 875.55 | 900.04 | 926.15 | 950.59 | 976.92 | 1000.5
318.15 K | 782.16 | 803.17 | 825.49 | 848.95 | 871.27 | 895.8 | 921.97 | 946.45 | 972.81 | 996.39
323.15 K | 777.17 | 798.52 | 821.03 | 844.64 | 867.05 | 891.65 | 917.86 | 942.41 | 968.8 | 992.41

NCCO [2-aminoethan-1-ol] + CC(C)CO
mass density [kg/m3]
Settings | x1 = 0.1188 | x1 = 0.2328 | x1 = 0.3421 | x1 = 0.4472 | x1 = 0.5482 | x1 = 0.6454 | x1 = 0.739 | x1 = 0.8291 | x1 = 0.9161 | x1 = 1
293.15 K | 819.76 | 840.36 | 859.83 | 880.16 | 901.41 | 923.2 | 946.54 | 967.04 | 992.18 | 1016.47
298.15 K | 815.85 | 836.42 | 855.88 | 876.22 | 897.44 | 919.26 | 942.54 | 963.08 | 988.22 | 1012.53
303.15 K | 811.84 | 832.41 | 851.83 | 872.2 | 893.38 | 915.22 | 938.44 | 959.04 | 984.12 | 1008.47
308.15 K | 807.88 | 828.46 | 847.85 | 868.25 | 889.39 | 911.26 | 934.38 | 955.07 | 980.15 | 1004.49
313.15 K | 803.87 | 824.49 | 843.85 | 864.27 | 885.38 | 907.27 | 930.38 | 951.07 | 976.15 | 1000.5
318.15 K | 799.72 | 820.35 | 839.71 | 860.15 | 881.25 | 903.15 | 926.19 | 946.97 | 972.04 | 996.39
323.15 K | 795.62 | 816.29 | 835.65 | 856.12 | 877.2 | 899.14 | 922.11 | 942.97 | 968.05 | 992.41

NCCO [2-aminoethan-1-ol] + CC(C)O
mass density [kg/m3]
Settings | x1 = 0.0986 | x1 = 0.1974 | x1 = 0.2966 | x1 = 0.3961 | x1 = 0.496 | x1 = 0.5961 | x1 = 0.6966 | x1 = 0.7974 | x1 = 0.8985 | x1 = 1
293.15 K | 804.43 | 824.39 | 844.97 | 868.88 | 891.61 | 915.69 | 939.56 | 965.29 | 989.95 | 1016.47
298.15 K | 800.28 | 820.25 | 840.83 | 864.78 | 887.55 | 911.65 | 935.53 | 961.29 | 985.96 | 1012.53
303.15 K | 795.98 | 815.98 | 836.58 | 860.58 | 883.37 | 907.48 | 931.4 | 957.17 | 981.86 | 1008.47
308.15 K | 791.72 | 811.76 | 832.38 | 856.42 | 879.25 | 903.38 | 927.32 | 953.13 | 977.84 | 1004.49
313.15 K | 787.39 | 807.48 | 828.13 | 852.23 | 875.1 | 899.25 | 923.23 | 949.07 | 973.81 | 1000.5
318.15 K | 782.87 | 803.04 | 823.74 | 847.9 | 870.82 | 895 | 919 | 944.88 | 969.66 | 996.39
323.15 K | 778.38 | 798.63 | 819.42 | 843.64 | 866.61 | 890.84 | 914.87 | 940.8 | 965.62 | 992.41

NCCO [2-aminoethan-1-ol] + CCCCO
mass density [kg/m3]
Settings | x1 = 0.1188 | x1 = 0.2328 | x1 = 0.3421 | x1 = 0.4472 | x1 = 0.5482 | x1 = 0.6454 | x1 = 0.739 | x1 = 0.8291 | x1 = 0.9161 | x1 = 1
293.15 K | 828.26 | 846.15 | 864.71 | 884.56 | 904.81 | 925.84 | 947.05 | 969.79 | 993.15 | 1016.47
298.15 K | 824.33 | 842.24 | 860.76 | 880.66 | 900.83 | 921.87 | 943.04 | 965.8 | 989.15 | 1012.53
303.15 K | 820.32 | 838.27 | 856.75 | 876.66 | 896.78 | 917.83 | 938.98 | 961.75 | 985.1 | 1008.47
308.15 K | 816.39 | 834.35 | 852.81 | 872.72 | 892.82 | 913.86 | 935 | 957.78 | 981.13 | 1004.49
313.15 K | 812.46 | 830.41 | 848.84 | 868.77 | 888.83 | 909.88 | 931 | 953.79 | 977.14 | 1000.5
318.15 K | 808.37 | 826.33 | 844.74 | 864.67 | 884.72 | 905.76 | 926.88 | 949.68 | 973.04 | 996.39
323.15 K | 804.35 | 822.32 | 840.73 | 860.67 | 880.7 | 901.75 | 922.86 | 945.68 | 969.05 | 992.41

NCCO [2-aminoethan-1-ol] + CCCO
mass density [kg/m3]
Settings | x1 = 0.0986 | x1 = 0.1974 | x1 = 0.2966 | x1 = 0.3961 | x1 = 0.496 | x1 = 0.5961 | x1 = 0.6966 | x1 = 0.7974 | x1 = 0.8985 | x1 = 1
293.15 K | 823.05 | 842.4 | 862.05 | 882.56 | 903.81 | 924.46 | 946.99 | 969.87 | 992.94 | 1016.47
298.15 K | 818.95 | 838.27 | 857.94 | 878.51 | 899.73 | 920.46 | 942.97 | 965.86 | 988.96 | 1012.53
303.15 K | 814.83 | 834.12 | 853.8 | 874.37 | 895.6 | 916.36 | 938.85 | 961.75 | 984.88 | 1008.47
308.15 K | 810.75 | 830.03 | 849.74 | 870.31 | 891.55 | 912.32 | 934.79 | 957.71 | 980.88 | 1004.49
313.15 K | 806.64 | 825.91 | 845.63 | 866.21 | 887.47 | 908.27 | 930.72 | 953.68 | 976.87 | 1000.5
318.15 K | 802.38 | 821.65 | 841.39 | 861.99 | 883.26 | 904.08 | 926.53 | 949.53 | 972.75 | 996.39
323.15 K | 798.19 | 817.46 | 837.23 | 857.84 | 879.14 | 899.9 | 922.45 | 945.49 | 968.76 | 992.41
